Results from publication PMC5935545 (Molecular cell, 2018).

Legend:
[1] = biological target: EZH2 Y646N (PRC2/EZH2^Y646N) (Homo sapiens, UniProt Q15910, Y641N); format: biochemical
EZH2 (PRC2) = EZH2 (PRC2) (Homo sapiens, UniProt Q15910); format: biochemical
Chain of EZH2 (PRC2) (Q15910 whole entry): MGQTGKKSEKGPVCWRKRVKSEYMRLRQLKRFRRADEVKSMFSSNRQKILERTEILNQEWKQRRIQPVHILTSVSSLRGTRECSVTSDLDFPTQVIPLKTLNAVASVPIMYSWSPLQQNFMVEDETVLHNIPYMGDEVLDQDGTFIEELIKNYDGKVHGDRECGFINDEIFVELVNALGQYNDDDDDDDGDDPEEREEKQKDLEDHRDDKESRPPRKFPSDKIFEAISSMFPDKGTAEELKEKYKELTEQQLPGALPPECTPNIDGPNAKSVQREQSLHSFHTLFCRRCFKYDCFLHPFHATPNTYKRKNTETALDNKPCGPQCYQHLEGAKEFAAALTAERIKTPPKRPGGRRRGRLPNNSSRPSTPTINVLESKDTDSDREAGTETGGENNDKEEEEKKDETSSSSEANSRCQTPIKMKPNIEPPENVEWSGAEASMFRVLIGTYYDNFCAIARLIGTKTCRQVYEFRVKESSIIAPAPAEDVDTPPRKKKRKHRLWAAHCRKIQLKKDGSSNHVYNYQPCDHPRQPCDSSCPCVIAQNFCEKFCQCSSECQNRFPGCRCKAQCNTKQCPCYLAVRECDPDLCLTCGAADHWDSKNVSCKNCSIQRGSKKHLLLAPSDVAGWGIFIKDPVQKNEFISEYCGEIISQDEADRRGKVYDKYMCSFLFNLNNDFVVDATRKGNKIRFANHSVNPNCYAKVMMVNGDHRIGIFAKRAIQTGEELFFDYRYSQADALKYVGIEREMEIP
Chain of EZH2 (PRC2) (O75530 2-441 partner): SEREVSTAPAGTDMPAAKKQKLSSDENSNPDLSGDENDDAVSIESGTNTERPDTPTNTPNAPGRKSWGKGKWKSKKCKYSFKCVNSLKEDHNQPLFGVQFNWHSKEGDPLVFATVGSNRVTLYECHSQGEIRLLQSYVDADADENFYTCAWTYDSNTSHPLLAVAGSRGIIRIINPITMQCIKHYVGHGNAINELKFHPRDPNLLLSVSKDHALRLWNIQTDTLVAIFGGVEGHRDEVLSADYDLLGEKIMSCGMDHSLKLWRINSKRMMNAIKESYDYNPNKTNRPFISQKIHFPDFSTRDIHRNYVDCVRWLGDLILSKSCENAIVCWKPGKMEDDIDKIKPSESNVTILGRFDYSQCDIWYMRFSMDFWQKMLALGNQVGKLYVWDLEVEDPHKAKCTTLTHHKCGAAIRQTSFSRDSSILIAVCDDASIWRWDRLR
Chain of EZH2 (PRC2) (Q15022 whole entry partner): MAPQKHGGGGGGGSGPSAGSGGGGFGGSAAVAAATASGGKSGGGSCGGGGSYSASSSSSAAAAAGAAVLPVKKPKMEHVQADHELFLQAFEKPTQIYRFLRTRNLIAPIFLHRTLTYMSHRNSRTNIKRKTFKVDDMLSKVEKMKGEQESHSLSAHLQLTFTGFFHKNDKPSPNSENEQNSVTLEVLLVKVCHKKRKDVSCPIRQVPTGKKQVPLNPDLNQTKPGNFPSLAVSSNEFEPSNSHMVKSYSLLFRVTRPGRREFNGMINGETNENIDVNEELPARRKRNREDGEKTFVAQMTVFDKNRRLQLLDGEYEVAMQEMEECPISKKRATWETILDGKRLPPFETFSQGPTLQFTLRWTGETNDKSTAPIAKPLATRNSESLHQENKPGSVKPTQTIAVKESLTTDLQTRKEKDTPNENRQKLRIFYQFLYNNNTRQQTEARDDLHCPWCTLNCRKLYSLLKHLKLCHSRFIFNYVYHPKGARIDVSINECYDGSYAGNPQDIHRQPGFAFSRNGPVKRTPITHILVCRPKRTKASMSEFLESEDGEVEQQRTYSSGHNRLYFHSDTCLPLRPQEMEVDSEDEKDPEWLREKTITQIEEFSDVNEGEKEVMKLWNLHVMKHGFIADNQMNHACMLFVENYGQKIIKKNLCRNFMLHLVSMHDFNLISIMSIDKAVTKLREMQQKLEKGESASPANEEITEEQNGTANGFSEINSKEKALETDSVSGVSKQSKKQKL
Chain of EZH2 (PRC2) (Q09028 2-425 partner): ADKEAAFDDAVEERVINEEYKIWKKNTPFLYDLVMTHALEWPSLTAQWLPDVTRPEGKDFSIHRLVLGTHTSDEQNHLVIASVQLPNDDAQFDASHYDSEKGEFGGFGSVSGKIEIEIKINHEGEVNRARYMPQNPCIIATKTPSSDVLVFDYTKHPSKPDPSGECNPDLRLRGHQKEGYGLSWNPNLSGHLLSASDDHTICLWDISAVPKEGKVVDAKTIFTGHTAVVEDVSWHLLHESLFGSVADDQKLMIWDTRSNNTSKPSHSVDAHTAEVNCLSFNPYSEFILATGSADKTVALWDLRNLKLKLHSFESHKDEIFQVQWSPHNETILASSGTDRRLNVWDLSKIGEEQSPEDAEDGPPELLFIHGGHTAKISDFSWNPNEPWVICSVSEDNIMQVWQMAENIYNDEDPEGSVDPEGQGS

Chain of EZH2 Y646N (PRC2/EZH2^Y646N) (Q15910 whole entry Y641N): as the sequence (Q15910 whole entry) above, with Y641N counted along it
Chain of EZH2 Y646N (PRC2/EZH2^Y646N) (O75530 2-441 partner): as the sequence (O75530 2-441 partner) above
Chain of EZH2 Y646N (PRC2/EZH2^Y646N) (Q15022 whole entry partner): as the sequence (Q15022 whole entry partner) above
Chain of EZH2 Y646N (PRC2/EZH2^Y646N) (Q09028 2-425 partner): as the sequence (Q09028 2-425 partner) above

IC50 [1]: 891 ± 96 nM
IC50 (EZH2 (PRC2)): 766 ± 710 nM
Structure (SMILES): COC(=O)c1ccc(NC(=O)c2ccc(NC(=O)c3ccc([N+](=O)[O-])c(OCc4ccccc4)n3)c(OCc3ccccc3)n2)c(OCCCN)n1 [ADH-61]
